From ChEMBL document CHEMBL1201862, “PubChem BioAssay data set” (2004)
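Test compounds were applied to cells in 96-well plates for 48 hours at 5 doses. At the GI50, growth is halved.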 The source made the active and inactive calls. No stated cut-off is given here; in the data, active = GI50 up to about 1.1 µM and inactive = higher.

Tests used:
Assay in all cases: NCI tumour cell line growth inhibition, 48 h
[1] = system: SK-MEL-2
[2] = system: NCI-H23
[3] = system: HT-29
[4] = system: SNB-19
[5] = system: CAKI-1
[6] = system: LOX IMVI
[7] = system: CCRF-CEM
[8] = system: SK-OV-3
[9] = system: KM12
[10] = system: SF-539
[11] = system: MDA-MB-231
[12] = system: SF-295
[13] = system: OVCAR-3
[14] = system: 786-0
[15] = system: M14
[16] = system: Malme-3M
[17] = system: SNB-75
[18] = system: OVCAR-8
[19] = system: NCI-H460

Measured: GI50

O=C(O)CC1OCC=C2CN3CCC45C6=CC(=O)C(O)=C([N+](=O)[O-])C6=NC4C1C2CC35 (stereo not drawn)
inactive: [1] > 100 µM | [2] > 100 µM | [3] > 100 µM | [4] > 100 µM | [5] > 100 µM | [6] 40.8 µM | [7] 18.1 µM | [8] > 100 µM | [9] > 100 µM | [10] > 100 µM | [11] > 100 µM | [12] > 100 µM | [13] > 100 µM | [14] > 100 µM | [15] > 100 µM | [16] > 100 µM | [17] > 100 µM | [18] > 100 µM | [19] > 100 µM

NS(=O)(=O)c1ccc(NC(=O)N/N=C/c2ccccc2O)cc1
inactive: [1] 42 µM | [2] 80.7 µM | [3] 45.5 µM | [4] 38.6 µM | [5] 94.4 µM | [6] 47.4 µM | [7] 36.1 µM | [8] 81.5 µM | [9] 33.7 µM | [10] 41.9 µM | [11] > 100 µM | [12] 67.8 µM | [13] 42 µM | [14] 73.8 µM | [15] 36.8 µM | [16] 74.3 µM | [17] 56.9 µM | [18] 45.1 µM | [19] 67.9 µM

c1cc2c(cc1[C@@H]1OC[C@@H]3[C@H]1CO[C@H]3c1ccc3c(c1)OCO3)OCO2
inactive: [1] > 100 µM | [2] 65.9 µM | [3] 60.8 µM | [4] > 100 µM | [5] 30.1 µM | [6] 36.2 µM | [7] 44.8 µM | [8] > 100 µM | [9] 23.1 µM | [10] > 100 µM | [11] 94 µM | [12] > 100 µM | [13] 43.5 µM | [14] > 100 µM | [15] 62.8 µM | [16] 53.3 µM | [17] > 100 µM | [18] > 100 µM | [19] > 100 µM

[N-]=[N+]=NC1=C(N=[N+]=[N-])c2cccc3cccc(c23)C1=O
inactive: [1] > 100 µM | [2] > 100 µM | [3] 76.7 µM | [4] > 100 µM | [5] > 100 µM | [6] > 100 µM | [7] 67.9 µM | [8] > 100 µM | [9] 76.2 µM | [10] > 100 µM | [11] 60.1 µM | [12] > 100 µM | [13] > 100 µM | [14] > 100 µM | [15] > 100 µM | [16] > 100 µM | [17] > 100 µM | [18] > 100 µM | [19] 58.9 µM

CC(C)Cn1cnc2c(NCC(C)O)nc3ccccc3c21 (stereo not drawn)
inactive: [1] > 100 µM | [2] > 100 µM | [3] 36.6 µM | [4] > 100 µM | [5] 66.4 µM | [6] 42.6 µM | [7] > 100 µM | [8] > 100 µM | [9] > 100 µM | [10] > 100 µM | [11] > 100 µM | [12] > 100 µM | [13] > 100 µM | [14] > 100 µM | [15] > 100 µM | [16] 74.3 µM | [17] 56.1 µM | [18] > 100 µM | [19] > 100 µM

COc1ccc(N/N=C2\C3=C(CCC(C)(C)O3)C(=O)c3ccccc32)cc1
inactive: [1] 21.8 µM | [2] 18 µM | [3] 13.6 µM | [4] 21.9 µM | [5] 20 µM | [6] 16.2 µM | [7] 16 µM | [8] 37 µM | [9] 13.4 µM | [10] 24.4 µM | [11] 22.2 µM | [12] 14.8 µM | [13] 14.9 µM | [14] 18.3 µM | [15] 20.7 µM | [16] 20.9 µM | [17] 19 µM | [18] 26.5 µM | [19] 14.2 µM

CCO/C=N/C1=C(C#N)SC2=N/C(=C\c3ccccc3)C(=O)N21
inactive: [1] > 100 µM | [2] > 100 µM | [3] > 100 µM | [4] > 100 µM | [5] > 100 µM | [6] > 100 µM | [7] 60.5 µM | [8] > 100 µM | [9] > 100 µM | [10] > 100 µM | [11] > 100 µM | [12] > 100 µM | [13] > 100 µM | [14] > 100 µM | [15] > 100 µM | [16] > 100 µM | [17] > 81.3 µM | [18] > 100 µM | [19] > 100 µM
